A short description of the series: Au(I)-catalysed intramolecular Trp C2-H alkynylation: peptide-EBX (4-ethynylbenzoyl bis-CF3-benziodoxole on Lys side chain or N-terminus) + AuCl·Me2S, open flask. Conditions: HFIP, 5.0 mM, 25.0 °C, 0.17 h.

Molecules are shown by their SMILES.

With `CC(=O)N[C@@H](CCC(=O)O)C(=O)N[C@H](C(=O)N[C@@H](Cc1ccccc1)C(=O)N[C@H]1CCCCNC(=O)c2ccc(cc2)C#Cc2[nH]c3ccccc3c2C[C@@H](C(=O)N[C@@H](C)C(=O)N[C@@H](CC(C)C)C(=O)N[C@@H](CC(C)C)C(=O)N[C@@H](Cc2c[nH]c3ccccc23)C(N)=O)NC(=O)[C@H](CC(C)C)NC(=O)[C@H](CC(=O)O)NC1=O)[C@@H](C)O` [Ac-E-T-F-K(EBX)-D-L-W-A-L-L-W-NH2], where the note is “from CC(=O)N[C@@H](CCC(=O)O)C(=O)N[C@H](C(=O)N[C@@H](Cc1ccccc1)C(=O)N[C@@H](CCCCNC(=O)c1ccc(C#CI2OC(C(F)(F)F)(C(F)(F)F)c3ccccc32)cc1)C(=O)N[C@@H](CC(=O)O)C(=O)N[C@@H](CC(C)C)C(=O)N[C@@H](Cc1c[nH]c2ccccc12)C(=O)N[C@@H](C)C(=O)N[C@@H](CC(C)C)C(=O)N[C@@H](CC(C)C)C(=O)N[C@@H](Cc1c[nH]c2ccccc12)C(N)=O)[C@@H](C)O, 25-membered ring”, the ring closure, isolated yield was 37%.

As to `C[C@@H]1NC(=O)[C@H](CC(=O)O)NC(=O)c2ccc(cc2)C#Cc2c(c3ccccc3n2C)C[C@@H](C(N)=O)NC(=O)[C@H](CCC(=O)O)NC(=O)CNC(=O)[C@H]([C@@H](C)O)NC(=O)[C@H](CCC(=O)O)NC1=O` [EBX-D-A-E-T-G-E-W(1-Me)-NH2], the ring closure, isolated yield (from C[C@H](NC(=O)[C@H](CC(=O)O)NC(=O)c1ccc(C#CI2OC(C(F)(F)F)(C(F)(F)F)c3ccccc32)cc1)C(=O)N[C@@H](CCC(=O)O)C(=O)N[C@H](C(=O)NCC(=O)N[C@@H](CCC(=O)O)C(=O)N[C@@H](Cc1cn(C)c2ccccc12)C(N)=O)[C@@H](C)O, 30-membered ring) was determined as 86%. As to `CC(=O)N[C@H]1CCCCNC(=O)c2ccc(cc2)C#Cc2[nH]c3ccccc3c2C[C@@H](C(=O)O)NC(=O)[C@H](Cc2ccccc2)NC(=O)[C@H](C)NC(=O)[C@H](CCC(N)=O)NC1=O` [Ac-K(EBX)-Q-A-F-W-OH], the ring closure, isolated yield (from CC(=O)N[C@@H](CCCCNC(=O)c1ccc(C#CI2OC(C(F)(F)F)(C(F)(F)F)c3ccccc32)cc1)C(=O)N[C@@H](CCC(N)=O)C(=O)N[C@@H](C)C(=O)N[C@@H](Cc1ccccc1)C(=O)N[C@@H](Cc1c[nH]c2ccccc12)C(=O)O, 28-membered ring) stood at 56%. For the compound `CC(=O)N[C@H]1CCCCNC(=O)c2ccc(cc2)C#Cc2[nH]c3ccccc3c2C[C@@H](C(=O)O)NC(=O)[C@H](Cc2ccccc2)NC(=O)[C@H](C)NC(=O)[C@H](CC(=O)O)NC1=O` [Ac-K(EBX)-D-A-F-W-OH], under “from CC(=O)N[C@@H](CCCCNC(=O)c1ccc(C#CI2OC(C(F)(F)F)(C(F)(F)F)c3ccccc32)cc1)C(=O)N[C@@H](CC(=O)O)C(=O)N[C@@H](C)C(=O)N[C@@H](Cc1ccccc1)C(=O)N[C@@H](Cc1c[nH]c2ccccc12)C(=O)O, 28-membered ring”, the ring closure, isolated yield came out at 51%. Turning to `CC(=O)N[C@H]1CCCCNC(=O)c2ccc(cc2)C#Cc2[nH]c3ccccc3c2C[C@@H](C(=O)O)NC(=O)[C@H](Cc2ccccc2)NC(=O)[C@H](C)NC(=O)[C@H](Cc2ccc(O)cc2)NC1=O` [Ac-K(EBX)-Y-A-F-W-OH], the ring closure, isolated yield (from CC(=O)N[C@@H](CCCCNC(=O)c1ccc(C#CI2OC(C(F)(F)F)(C(F)(F)F)c3ccccc32)cc1)C(=O)N[C@@H](Cc1ccc(O)cc1)C(=O)N[C@@H](C)C(=O)N[C@@H](Cc1ccccc1)C(=O)N[C@@H](Cc1c[nH]c2ccccc12)C(=O)O, 28-membered ring) stood at 53%. As to `CC(C)C[C@@H]1NC(=O)[C@H](CC(=O)O)NC(=O)[C@H](CC(=O)O)NC(=O)[C@H](Cc2ccccc2)NC(=O)[C@H](Cc2ccccc2)NC(=O)CNC(=O)c2ccc(cc2)C#Cc2[nH]c3ccccc3c2C[C@@H](C(=O)N[C@@H](Cc2ccccc2)C(=O)N[C@H](C(=O)N[C@@H](C)C(N)=O)C(C)C)NC(=O)[C@H](Cc2ccc(O)cc2)NC1=O` [EBX-G-F-F-D-D-L-Y-W-F-V-A-NH2], for the setting “from CC(C)C[C@H](NC(=O)[C@H](CC(=O)O)NC(=O)[C@H](CC(=O)O)NC(=O)[C@H](Cc1ccccc1)NC(=O)[C@H](Cc1ccccc1)NC(=O)CNC(=O)c1ccc(C#CI2OC(C(F)(F)F)(C(F)(F)F)c3ccccc32)cc1)C(=O)N[C@@H](Cc1ccc(O)cc1)C(=O)N[C@@H](Cc1c[nH]c2ccccc12)C(=O)N[C@@H](Cc1ccccc1)C(=O)N[C@H](C(=O)N[C@@H](C)C(N)=O)C(C)C, 33-membered ring”, the ring closure, isolated yield is 56%. On to `CC(=O)N[C@H]1CCCCNC(=O)c2ccc(cc2)C#Cc2[nH]c3ccccc3c2C[C@@H](C(=O)O)NC(=O)[C@H](Cc2ccccc2)NC(=O)[C@H](C)NC(=O)[C@H](CC(N)=O)NC1=O` [Ac-K(EBX)-N-A-F-W-OH], for which, for the setting “from CC(=O)N[C@@H](CCCCNC(=O)c1ccc(C#CI2OC(C(F)(F)F)(C(F)(F)F)c3ccccc32)cc1)C(=O)N[C@@H](CC(N)=O)C(=O)N[C@@H](C)C(=O)N[C@@H](Cc1ccccc1)C(=O)N[C@@H](Cc1c[nH]c2ccccc12)C(=O)O, 28-membered ring”, the ring closure, isolated yield is 52%. Consider `C#CC[C@@H]1NC(=O)[C@@H](NC(C)=O)CCCCNC(=O)c2ccc(cc2)C#Cc2[nH]c3ccccc3c2C[C@@H](C(=O)O)NC(=O)[C@H](Cc2ccccc2)NC(=O)[C@H](C)NC1=O` [Ac-K(EBX)-Pra-A-F-W-OH], for which the ring closure, isolated yield (from C#CC[C@H](NC(=O)[C@H](CCCCNC(=O)c1ccc(C#CI2OC(C(F)(F)F)(C(F)(F)F)c3ccccc32)cc1)NC(C)=O)C(=O)N[C@@H](C)C(=O)N[C@@H](Cc1ccccc1)C(=O)N[C@@H](Cc1c[nH]c2ccccc12)C(=O)O, 28-membered ring) was 57%. For the compound `C[C@@H]1NC(=O)[C@H](CC(=O)O)NC(=O)CNC(=O)c2ccc(cc2)C#Cc2c(c3ccccc3n2C)C[C@@H](C(N)=O)NC(=O)[C@H](CCC(=O)O)NC(=O)CNC(=O)[C@H]([C@@H](C)O)NC(=O)[C@H](CCC(=O)O)NC1=O` [EBX-G-D-A-E-T-G-E-W(1-Me)-NH2], the ring closure, isolated yield (from C[C@H](NC(=O)[C@H](CC(=O)O)NC(=O)CNC(=O)c1ccc(C#CI2OC(C(F)(F)F)(C(F)(F)F)c3ccccc32)cc1)C(=O)N[C@@H](CCC(=O)O)C(=O)N[C@H](C(=O)NCC(=O)N[C@@H](CCC(=O)O)C(=O)N[C@@H](Cc1cn(C)c2ccccc12)C(N)=O)[C@@H](C)O, 33-membered ring) is 61%.

The record behind these values is PMC10722513.
